Activity calls are given as the source filed them. How the calls were made is not given here.
Tests used:
[1] = test system: human cells, Her2 expression AlphaScreen; CTG viability; assay: inhibitors of Her2 kinase expression, dose response, cell-based, AlphaScreen, CellTiter-Glo viability (AID 742); conditions: viability, CellTiter-Glo
[2] = as above; conditions: human cells, Her2 expression AlphaScreen; CTG viability; at 9.62 µM (top of the series)

Row | Compound | EC50 [1] | Her2 inhibition [2]
1 | CN1CCCN(C(c2ccccc2)c2ccc(Cl)cc2)CC1 (stereo not given) | > 9.62 µM | -8.42% (inactive)
2 | CSCC[C@H](NC(=O)NCc1ccc(F)cc1)C(=O)O | > 9.62 µM | -11.5% (inactive)
3 | N#CC(C#N)=c1ccc2c(c1)N1C3=C(CCCC3)CC3CCCCC31N=2 (stereo not given) | > 9.62 µM | 24.3% (inactive)
4 | Cc1nc2cc(S(=O)(=O)C(F)(F)F)ccc2s1 | > 9.62 µM | -23.9% (inactive)
5 | N=c1c2c(-c3ccccc3)c(-c3ccccc3)n(Cc3ccco3)c2ncn1Cc1ccco1 | > 9.62 µM | -27.8% (inactive)
6 | CCOC(=O)c1ccc(N=c2sc(C(=O)OC)cc(=O)n2Cc2ccco2)cc1 | > 9.62 µM | -0.92% (inactive)
7 | CC1CN=C(N(C(=O)Nc2ccccc2)c2ccc(S(=O)(=O)N3CCOCC3)cc2)S1 (stereo not given) | > 9.62 µM | -5.35% (inactive)
8 | CCCCCCOC(=O)C(C#N)c1nc2ccccc2nc1N1CCN(C)CC1 (stereo not given) | > 9.62 µM | -32.5% (inactive)
9 | Cc1cc(NC(=O)CCCS(=O)(=O)c2nc(-c3cccs3)cc(C(F)(F)F)n2)no1 | > 9.62 µM | 18.9% (inactive)
10 | COc1cc2c(C#N)c(N3CCN(c4ccccc4OC)CC3)nc(N)c2c(N)n1 | > 9.62 µM | -7.21% (inactive)
11 | CC(C)N1CCC2(CC1)N=C(c1ccc3c(c1)OCO3)CC(c1cc(Cl)ccc1O)N2 (stereo not given) | > 9.62 µM | 20.5% (inactive)
12 | C=C(C)COc1ccc(-c2n[nH]c(C)c2Oc2ccccc2OC)c(O)c1 | > 9.62 µM | -8.71% (inactive)
13 | N#C/C(C(N)=O)=c1/ccc2c(c1)N1C3=C(CCCC3)CC3CCCCC31N=2 (stereo not given) | > 9.62 µM | 4.75% (inactive)
14 | N#Cc1ccc(-c2ccco2)nc1SCc1ccccc1 | > 9.62 µM | 14.8% (inactive)
15 | O=S(=O)(c1ccc2c(c1)C(=NO)c1cc(S(=O)(=O)N3CCCCC3)ccc1-2)N1CCCCC1 | < 0.024 µM | 27.4% (inactive)
16 | Cc1ccccc1OCCCC(=O)Nc1nccs1 | > 9.62 µM | -6.38% (inactive)
17 | CCOc1cc(C(=O)CSc2nnc(CNc3ccc(Cl)cc3)o2)ccc1NC(=O)CC | > 9.62 µM | -22.6% (inactive)
18 | N=C(N)c1c(O)n(C2CCCCC2)c(=O)n(C2CCCCC2)c1=O | > 9.62 µM | -21.5% (inactive)
19 | CC1(C)CCCC2=C1CC1C(=O)N(Cc3cccnc3)C(=O)C1C2 (stereo not given) | > 9.62 µM | -13.3% (inactive)
20 | c1ccc(CNC2=NCCC2)nc1 | > 9.62 µM | -3.59% (inactive)
21 | Cn1nc(C(=O)Nc2c(-c3ccccc3)nc3sccn23)c2ccccc2c1=O | > 9.62 µM | -13.2% (inactive)
22 | COc1ccc(-c2nc(C(N)=O)c3[nH]c(=O)n(-c4cccc(Cl)c4)c3n2)cc1OC | > 9.62 µM | -17.3% (inactive)
23 | Cc1cc(-c2ccccc2)nc(=O)[nH]1 | > 9.62 µM | -18.4% (inactive)
24 | COc1ccc(/C=C/C(O)=C2/C(=O)N(C)C3(C)CC2c2ccccc2O3)cc1 (stereo not given) | > 9.62 µM | 23.7% (inactive)
25 | Cc1c(NC(=O)c2coc(=O)c(Br)c2)c(=O)n(-c2ccccc2)n1C | > 9.62 µM | 7.39% (inactive)
26 | O=S1(=O)Nc2c(ccc3cccnc23)-c2ccccc21 | > 9.62 µM | 12.6% (inactive)
27 | CCn1c(SCC(=O)C(C)(C)C)nnc1-c1cnccn1 | > 9.62 µM | 2.82% (inactive)
28 | CCn1c(=O)c(C(=O)Nc2nc3ccccc3[nH]2)c(O)c2ccccc21 | > 9.62 µM | 41.2% (inactive)
29 | CCCCn1c(O)c(C(C)=NCCN2CCCCC2)c(=O)[nH]c1=O | > 9.62 µM | -17.4% (inactive)
30 | CCCCCNC(=O)C(C#N)c1nc2ccccc2nc1N1CCCC1 (stereo not given) | > 9.62 µM | -19% (inactive)
